Measured values taken from patent publication US8557816B2, “Aurora kinase modulators and method of use” (Amgen Inc., priority 2007, dated 2013).

How the values were obtained:
AuroraA-TPX2 = target: T1, AuroraA-TPX2 (Homo sapiens, UniProt O14965); assay: AuroraA-TPX2 Homogeneous Time Resolved Fluorescent (HTRF) kinase assay; assay type: biochemical; settings: average; read-out: AurA_IC50_IP (uM Avg)
T1 construct: 20 μL of AuroraA-TPX2 KD GST for a final volume of about 41 μL; GST
T1 sequence (O14965 133-383 limits assumed): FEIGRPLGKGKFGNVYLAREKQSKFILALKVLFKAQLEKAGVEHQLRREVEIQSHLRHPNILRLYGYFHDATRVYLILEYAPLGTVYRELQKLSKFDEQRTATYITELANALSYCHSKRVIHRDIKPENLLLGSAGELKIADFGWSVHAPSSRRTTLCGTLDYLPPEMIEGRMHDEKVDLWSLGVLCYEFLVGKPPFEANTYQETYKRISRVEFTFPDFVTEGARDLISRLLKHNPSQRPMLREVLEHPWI
T1 sequence (Q9ULW0 1-43 partner limits assumed): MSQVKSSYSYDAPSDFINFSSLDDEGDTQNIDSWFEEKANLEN
Procedure, shortened: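 HTRF read-out (Eu 615 nm to APC 655 nm) of phosphorylated biotin-PLK, detected with 0.02 nM europium anti-phosphoPLK antibody and 0.0005 mg/mL SA-APC after overnight equilibration.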

AuroraB = target: T2, AuroraB (Homo sapiens, UniProt Q96GD4); assay: AuroraB Homogeneous Time Resolved Fluorescent (HTRF) kinase assay; assay type: biochemical; settings: average; read-out: AurB_IC50_IP (uM Avg)
T2 construct: 20 μL of AuroraB FL H is for a final volume of 41 μL; His
Procedure, shortened: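 Read-out is time-resolved FRET between europium anti-phospho-H3 antibody and streptavidin-APC, added in EDTA buffer to stop the reaction and equilibrated about 60 min (ex 320, em 615 and 655 nm). Preceding reaction: ~90 min, full-length enzyme, ATP, 0.1 μM biotin-Histone H3 substrate, Mg/Mn HEPES buffer pH 7.5.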

T2 sequence (Q96GD4 whole entry): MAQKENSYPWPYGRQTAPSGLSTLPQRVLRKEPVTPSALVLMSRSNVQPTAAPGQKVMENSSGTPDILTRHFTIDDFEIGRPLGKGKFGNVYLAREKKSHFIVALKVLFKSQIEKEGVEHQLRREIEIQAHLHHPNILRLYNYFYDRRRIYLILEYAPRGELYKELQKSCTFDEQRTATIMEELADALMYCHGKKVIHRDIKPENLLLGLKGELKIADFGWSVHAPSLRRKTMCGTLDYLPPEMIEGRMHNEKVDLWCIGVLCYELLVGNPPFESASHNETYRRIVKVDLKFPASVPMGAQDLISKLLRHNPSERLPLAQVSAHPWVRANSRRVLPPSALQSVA

Row | IC50 (AuroraA-TPX2) [µM] | IC50 (AuroraB) [µM] | SMILES
1 | 0.029 | 0.011 | COc1cnc2c(Oc3ccc(Nc4nnc(-c5ccc(C(C)C)cc5)c5ccccc45)cc3)ccnc2c1 [compound 155, 4-(4-(1-methylethyl)phenyl)-N-(4-((7-(methyloxy)-1,5-naphthyridin-4-yl)oxy)phenyl)-1-phthalazinamine]
2 | 0.037 | 0.005 | COc1cnc2c(Oc3ccc(Nc4nnc(-c5ccc(OC)nc5)c5ccccc45)cc3)ccnc2c1 [compound 158, N-(4-((7-(methyloxy)-1,5-naphthyridin-4-yl)oxy)phenyl)-4-(6-(methyloxy)-3-pyridinyl)-1-phthalazinamine]
3 | 0.01 | 0.007 | COc1cnc2c(Oc3ccc(Nc4nnc(-c5ccc6occc6c5)c5ccccc45)cc3)ccnc2c1 [compound 159, 4-(1-benzofuran-5-yl)-N-(4-((7-(methyloxy)-1,5-naphthyridin-4-yl)oxy)phenyl)-1-phthalazinamine]
4 | 0.072 | 0.009 | COc1cnc2c(Oc3ccc(Nc4nnc(-c5ccc(OC(F)(F)F)cc5)c5ccccc45)cc3)ccnc2c1 [compound 163, N-(4-((7-(methyloxy)-1,5-naphthyridin-4-yl)oxy)phenyl)-4-(4-((trifluoromethyl)oxy)phenyl)-1-phthalazinamine]
5 | 0.013 | 0.004 | COc1cnc2c(Oc3ccc(Nc4nnc(-c5ccc6[nH]ccc6c5)c5ccccc45)cc3)ccnc2c1 [compound 167, 4-(1H-indol-5-yl)-N-(4-((7-(methyloxy)-1,5-naphthyridin-4-yl)oxy)phenyl)-1-phthalazinamine]
6 | 0.016 | 0.009 | Cc1csc(-c2nnc(Nc3ccc(Oc4ccnc5cc(C#N)ccc45)cc3)c3ccccc23)c1 [compound 170, 4-((4-((4-(4-methyl-2-thienyl)-1-phthalazinyl)amino)phenyl)oxy)-7-quinolinecarbonitrile]
7 | 0.039 | 0.017 | COc1cnc2c(Oc3ccc(Nc4nnc(-c5ccc(C(F)(F)F)c(Cl)c5)c5ccccc45)cc3)ccnc2c1 [compound 172, 4-(3-chloro-4-(trifluoromethyl)phenyl)-N-(4-((7-(methyloxy)-1,5-naphthyridin-4-yl)oxy)phenyl)-1-phthalazinamine]
8 | 0.231 | 0.006 | COc1cnc2c(Oc3ccc(Nc4nnc(-c5sccc5C)c5ccccc45)cc3)ccnc2c1 [compound 185, N-(4-((7-(methyloxy)-1,5-naphthyridin-4-yl)oxy)phenyl)-4-(3-methyl-2-thienyl)-1-phthalazinamine]
9 | 0.059 | 0.002 | COc1cccc(-c2nnc(Nc3ccc(Oc4ccnc5ccccc45)c(F)c3)c3ccccc23)n1 [compound 186, N-(3-fluoro-4-(4-quinolinyloxy)phenyl)-4-(6-(methyloxy)-2-pyridinyl)-1-phthalazinamine]

The remaining lines, values behind:

Row | SMILES | IC50 (AuroraA-TPX2) [µM] | IC50 (AuroraB) [µM]
10 | CCCc1cc(-c2ccccc2)nnc1Nc1ccc(Oc2ccnc3cc(OC)cnc23)cc1 [compound 156, N-(4-((7-(methyloxy)-1,5-naphthyridin-4-yl)oxy)phenyl)-6-phenyl-4-propyl-3-pyridazinamine] | 0.047 | 0.005
11 | COc1cnc2c(Oc3ccc(Nc4nnc(-c5ccc6c(c5)OCCN6C)c5ccccc45)cc3)ccnc2c1 [compound 157, 4-(4-methyl-3,4-dihydro-2H-1,4-benzoxazin-7-yl)-N-(4-((7-(methyloxy)-1,5-naphthyridin-4-yl)oxy)phenyl)-1-phthalazinamine] | 0.012 | 0.005
12 | Cc1ccc(-c2nnc(Nc3ccc(Oc4ccnc5ccccc45)c(F)c3)c3ccccc23)cc1 [compound 161, N-(3-fluoro-4-(4-quinolinyloxy)phenyl)-4-(4-methylphenyl)-1-phthalazinamine] | 0.027 | 0.005
13 | Cc1ccc(-c2nnc(Nc3ccc(Oc4ccnc5cc(C#N)ccc45)cc3)c3ccccc23)s1 [compound 162, 4-((4-((4-(5-methyl-2-thienyl)-1-phthalazinyl)amino)phenyl)oxy)-7-quinolinecarbonitrile] | 0.012 | 0.004
14 | COc1ccc2c(Oc3ccc(Nc4nnc(-c5ccccc5)c5ccccc45)cc3)c(F)cnc2c1 [compound 164, N-(4-((3-fluoro-7-(methyloxy)-4-quinolinyl)oxy)phenyl)-4-phenyl-1-phthalazinamine] | 0.04 | 0.003
15 | COc1cnc2c(Oc3ccc(Nc4nnc(-c5ccc6c(c5)OCCO6)c5ccccc45)cc3)ccnc2c1 [compound 166, 4-(2,3-dihydro-1,4-benzodioxin-6-yl)-N-(4-((7-(methyloxy)-1,5-naphthyridin-4-yl)oxy)phenyl)-1-phthalazinamine] | 0.023 | 0.006
16 | COc1cnc2c(Oc3ccc(Nc4nnc(-c5ccc6c(c5)CCO6)c5ccccc45)cc3)ccnc2c1 [compound 168, 4-(2,3-dihydro-1-benzofuran-5-yl)-N-(4-((7-(methyloxy)-1,5-naphthyridin-4-yl)oxy)phenyl)-1-phthalazinamine] | 0.008 | 0.005
17 | COc1cnc2c(Oc3ccc(Nc4nnc(-c5csc6ccccc56)c5ccccc45)cc3)ccnc2c1 [compound 169, 4-(1-benzothien-3-yl)-N-(4-((7-(methyloxy)-1,5-naphthyridin-4-yl)oxy)phenyl)-1-phthalazinamine] | 0.01 | 0.009
18 | COc1cnc2c(Oc3ccc(Nc4nnc(-c5cc6ccccc6s5)c5ccccc45)cc3)ccnc2c1 [compound 171, 4-(1-benzothien-2-yl)-N-(4-((7-(methyloxy)-1,5-naphthyridin-4-yl)oxy)phenyl)-1-phthalazinamine] | 0.013 | 0.015
19 | COc1cnc2c(Oc3ccc(Nc4nnc(N5CC[C@H]6CCCC[C@H]6C5)c5ccccc45)cc3)ccnc2c1 [compound 173, N-(4-((7-(methyloxy)-1,5-naphthyridin-4-yl)oxy)phenyl)-4-((4aR,8aR)-octahydro-2(1H)-isoquinolinyl)-1-phthalazinamine] | 0.019 | 0.019
20 | CCOc1nc(-c2nnc(Nc3ccc(Oc4ccnc5cc(OC)cnc45)cc3)c3ccccc23)cs1 [compound 175, 4-(2-(ethyloxy)-1,3-thiazol-4-yl)-N-(4-((7-(methyloxy)-1,5-naphthyridin-4-yl)oxy)phenyl)-1-phthalazinamine] | 0.013 | 0.003
21 | COc1cnc2c(Oc3ccc(Nc4nnc(-c5cc6ccccc6o5)c5ccccc45)cc3)ccnc2c1 [compound 176, 4-(1-benzofuran-2-yl)-N-(4-((7-(methyloxy)-1,5-naphthyridin-4-yl)oxy)phenyl)-1-phthalazinamine] | 0.007 | 0.002
22 | COc1cnc2c(Oc3ccc(Nc4nnc(-c5ccc(C(N)=O)cc5)c5ccccc45)cc3)ccnc2c1 [compound 177, 4-(4-((4-((7-(methyloxy)-1,5-naphthyridin-4-yl)oxy)phenyl)amino)-1-phthalazinyl)benzamide] | 0.206 | 0.004
23 | COc1cnc2c(Oc3ccc(Nc4nnc(-c5ccc(C)nc5F)c5ccccc45)cc3)ccnc2c1 [compound 178, 4-(2-fluoro-6-methyl-3-pyridinyl)-N-(4-((7-(methyloxy)-1,5-naphthyridin-4-yl)oxy)phenyl)-1-phthalazinamine] | 0.035 | 0.002
24 | O=C(Nc1cc(Oc2ccc(Nc3nnc(-c4ccccc4)c4ccccc34)cc2F)ccn1)N1CCOCC1 [compound 179, N-(4-((2-fluoro-4-((4-phenyl-1-phthalazinyl)amino)phenyl)oxy)-2-pyridinyl)-4-morpholinecarboxamide] | 0.18 | 0.043
25 | COc1cnc2c(Oc3ccc(Nc4nnc(-c5ccc(F)c(OC)c5)c5ccccc45)cc3)ccnc2c1 [compound 180, 4-(4-fluoro-3-(methyloxy)phenyl)-N-(4-((7-(methyloxy)-1,5-naphthyridin-4-yl)oxy)phenyl)-1-phthalazinamine] | 0.027 | 0.004
26 | COc1cnc2c(Oc3ccc(Nc4nnc(-c5ccc(C#N)cc5)c5ccccc45)cc3)ccnc2c1 [compound 181, 4-(4-((4-((7-(methyloxy)-1,5-naphthyridin-4-yl)oxy)phenyl)amino)-1-phthalazinyl)benzonitrile] | 0.171 | 0.007
27 | COc1cnc2c(Oc3ccc(Nc4nnc(-c5cnc6ccccc6c5)c5ccccc45)cc3)ccnc2c1 [compound 182, N-(4-((7-(methyloxy)-1,5-naphthyridin-4-yl)oxy)phenyl)-4-(3-quinolinyl)-1-phthalazinamine] | 0.023 | 0.002
28 | COc1cnc2c(Oc3ccc(Nc4nnc(-c5cccc6[nH]ccc56)c5ccccc45)cc3)ccnc2c1 [compound 183, 4-(1H-indol-4-yl)-N-(4-((7-(methyloxy)-1,5-naphthyridin-4-yl)oxy)phenyl)-1-phthalazinamine] | 0.033 | 0.003
29 | Cc1ccsc1-c1nnc(Nc2ccc(Oc3ccnc4cc(C#N)ccc34)cc2)c2ccccc12 [compound 184, 4-((4-((4-(3-methyl-2-thienyl)-1-phthalazinyl)amino)phenyl)oxy)-7-quinolinecarbonitrile] | 0.201 | 0.003
